Broadly, the IC50 is the concentration needed to halve the response being measured. Usually Ki stands for a dissociation constant, usually derived from enzyme kinetics or from competition with a known ligand. Read a low Ki as higher affinity.

From publication PMC9596378, “Discovery and molecular basis of subtype-selective cyclophilin inhibitors” (Nature Chemical Biology, 2022) come the findings set out here.

In test [1] the target is T1, CypD K118E/R124A (Homo sapiens, UniProt P30405, K118E/R124A).
T1 construct: made in house; host or cells: E. coli BL21(DE3)
T1 sequence (P30405 45-207 K118E/R124A): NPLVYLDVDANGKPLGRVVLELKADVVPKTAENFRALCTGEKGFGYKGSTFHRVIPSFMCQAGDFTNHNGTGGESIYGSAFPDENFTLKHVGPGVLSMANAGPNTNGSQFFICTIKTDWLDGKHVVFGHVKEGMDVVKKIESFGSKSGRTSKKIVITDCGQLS
The experiment in a line: Chymotrypsin coupled prolyl-isomerase assay. Type of test: biochemical. A digest of the protocol:
(§1)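 Recombinant cyclophilin (5 nM final) in 25 mM HEPES pH 7.3, 100 mM NaCl, 0.01% Triton X-100 was preincubated with compound at 2–3 °C. It was then coupled with 25 µM α-chymotrypsin and 5 µM Suc-AAPF-AMC (LiCl/TFE), and AMC fluorescence was followed for 330 s.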

Test [2] has as its target T2, CypE K212A (Homo sapiens, UniProt Q9UNP9, K212A).
T2 construct: Lane 4- GS-CypE K212A (131-301);; His6 tag with thrombin site (pET28a LIC); GS remnant stays on the N-terminus (N, cleaved yes); host or cells: E. coli BL21(DE3)
The experiment in a line: Competition anisotropy binding assay with A26-Fl. The following applies: FP competition with 0.5 nM A26-Fl, 24 h. Here is the method: (§2) Adapted from previous work[52], cyclophilin in assay buffer (25 mM HEPES pH 8.0, 100 mM NaCl, 0.01% Triton X-100) at a pre-determined concentration from Supplementary Table 6 was incubated with 0.5 nM A26-Fl for 10 min at room temperature in a flat-bottom black untreated 96-well plate (Corning). Competitor macrocycle was then added to each well and incubated for 24 h. Final assay volume was 100 µL with 0.25% DMSO. Fluorescence anisotropy was then measured using a Tecan Spark plate reader using 492 nm/523 nm excitation/emission settings.

The target in test [3] is T3, CypB (Homo sapiens, UniProt P23284).
T3 construct: PPIB (UniProtKB Entry P23284: residues 34–216); His6 with TEV site (2BT vector leader) (N); made in house; host or cells: E. coli BL21(DE3)
T3 sequence (P23284 34-216): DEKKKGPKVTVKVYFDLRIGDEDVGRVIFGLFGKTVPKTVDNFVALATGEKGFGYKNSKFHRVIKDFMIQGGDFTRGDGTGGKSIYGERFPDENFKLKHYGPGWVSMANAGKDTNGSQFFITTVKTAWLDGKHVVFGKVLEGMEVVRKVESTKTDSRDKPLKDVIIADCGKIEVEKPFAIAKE
The test is described as follows: Competition anisotropy binding assay with A26-Fl. The conditions noted are these: FP competition with 0.5 nM A26-Fl, 24 h. As to the method: as §2

The target in test [4] is T4, PPIL1 (Homo sapiens, UniProt Q9Y3C6).
T4 construct: PPIL1 (UniProtKB Entry Q9Y3C6: residues 1–166); made in house; host or cells: E. coli BL21(DE3)
T4 sequence (Q9Y3C6 1-166): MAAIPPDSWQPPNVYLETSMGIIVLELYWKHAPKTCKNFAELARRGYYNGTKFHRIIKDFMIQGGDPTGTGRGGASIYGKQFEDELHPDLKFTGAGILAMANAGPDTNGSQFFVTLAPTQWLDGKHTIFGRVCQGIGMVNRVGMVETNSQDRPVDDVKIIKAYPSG
The test is described as follows: Competition anisotropy binding assay with A26-Fl. The following applies: FP competition with 0.5 nM A26-Fl, 24 h. Here is the method:
as §2

Test [5] addresses T5, CypE K218A (Homo sapiens, UniProt Q9UNP9, K218A).
T5 construct: Lane 6- GS-CypE K218A (131-301);; His6 tag with thrombin site (pET28a LIC); GS remnant stays on the N-terminus (N, cleaved yes); host or cells: E. coli BL21(DE3)
The test is described as follows: Competition anisotropy binding assay with A26-Fl. The following applies: FP competition with 0.5 nM A26-Fl, 24 h. Here is the method: as §2

The target of test [6] is T6, PPIL3 (Homo sapiens, UniProt Q9H2H8).
T6 construct: PPIL3 (UniProtKB Entry Q9H2H8: residues 1–161); His6 tag with TEV site (2BT vector); SNA remnant stays on the N-terminus (N, cleaved yes); made in house; host or cells: E. coli BL21(DE3)
T6 sequence (Q9H2H8 whole entry, the tested form may be a part): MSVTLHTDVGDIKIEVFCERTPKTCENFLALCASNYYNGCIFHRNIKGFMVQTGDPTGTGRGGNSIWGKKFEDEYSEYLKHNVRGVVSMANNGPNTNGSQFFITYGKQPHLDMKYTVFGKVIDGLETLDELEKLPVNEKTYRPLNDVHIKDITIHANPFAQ
The experiment in a line: Competition anisotropy binding assay with A26-Fl. The following applies: FP competition with 0.5 nM A26-Fl, 24 h. Here is the method: as §2

Test [7] deals with T7, CypE K217A (Homo sapiens, UniProt Q9UNP9, K217A).
T7 construct: Lane 5- GS-CypE K217A (131-301);; His6 tag with thrombin site (pET28a LIC); GS remnant stays on the N-terminus (N, cleaved yes); host or cells: E. coli BL21(DE3)
T7 sequence (Q9UNP9 131-301 K217A): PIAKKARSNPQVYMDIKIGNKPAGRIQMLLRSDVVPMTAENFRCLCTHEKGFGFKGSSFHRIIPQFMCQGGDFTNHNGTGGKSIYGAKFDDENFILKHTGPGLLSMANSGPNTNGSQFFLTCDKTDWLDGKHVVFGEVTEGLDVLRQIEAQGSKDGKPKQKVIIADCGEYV
The experiment in a line: Competition anisotropy binding assay with A26-Fl. As to the method:
as §2

Test [8] concerns the target T8, CypA (Homo sapiens, UniProt P62937).
T8 construct: PPIA (UniProtKB Entry P62937: residues 1–165); made in house; host or cells: E. coli BL21(DE3)
The experiment in a line: Competition anisotropy binding assay with A26-Fl. The conditions noted are these: FP competition with 0.5 nM A26-Fl, 24 h. Here is the method: as §2

For test [9], the target named is T2, CypE K212A. The test is described as follows: Chymotrypsin coupled prolyl-isomerase assay. Type of test: biochemical. The following applies: mutant CypE K212A; read-out: Mutant Cyclophilin Prolyl Isomerase Inhibition IC50 Values, CypE K212A. In short, it runs like this: as §1
Test [10] addresses T5, CypE K218A. The experiment in a line: Chymotrypsin coupled prolyl-isomerase assay. The class given is biochemical. In short, it runs like this:
as §1

Read-outs that look alike come from different tables or passages of the source.

T5 sequence (Q9UNP9 131-301 K218A): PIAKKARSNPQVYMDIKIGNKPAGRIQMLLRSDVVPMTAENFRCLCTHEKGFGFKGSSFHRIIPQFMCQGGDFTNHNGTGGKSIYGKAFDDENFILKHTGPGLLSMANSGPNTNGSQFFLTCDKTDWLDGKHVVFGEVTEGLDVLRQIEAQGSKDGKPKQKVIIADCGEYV
T2 sequence (Q9UNP9 131-301 K212A): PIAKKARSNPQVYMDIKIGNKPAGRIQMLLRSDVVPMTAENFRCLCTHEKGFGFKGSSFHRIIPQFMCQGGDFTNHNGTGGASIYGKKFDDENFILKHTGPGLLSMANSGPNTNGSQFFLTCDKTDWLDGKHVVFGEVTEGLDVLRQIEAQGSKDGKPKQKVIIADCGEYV
T8 sequence (P62937 whole entry, the tested form may be a part): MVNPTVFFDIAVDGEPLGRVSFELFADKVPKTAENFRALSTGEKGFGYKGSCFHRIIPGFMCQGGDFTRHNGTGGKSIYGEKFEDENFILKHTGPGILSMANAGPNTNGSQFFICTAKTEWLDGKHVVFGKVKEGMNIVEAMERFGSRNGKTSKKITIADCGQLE

Turning to `NCCCc1ccc(-c2ccc(C[C@@H]3NC(=O)[C@]4(Cc5ccccc5)CCCN(C4)C(=O)/C=C/C(=O)NCC[C@@H](C(=O)NCCOCCN)NC(=O)Cc4ccccc4CNC3=O)cc2)cc1` [Compound B32], the “potency improvement on CypD K118E/R124A compared to wild-type CypD” value in [1] came to 100 fold. In [1] (prolyl-isomerase IC50), the “preference for CypD K118E/R124A over PPWD1” value was “at least 13 fold” and the “selectivity for CypD K118E/R124A over CypA” value was over 100 fold. The compound also had an IC50 in test [1] (prolyl-isomerase inhibition) of 0.06 µM.

For the compound `NC(=O)C1CCNC(=O)C=CC(=O)N2CCCC(Cc3ccccc3)(C2)C(=O)NC(Cc2ccc(-c3ccc(C=O)c(B(O)O)c3)cc2)C(=O)NCc2ccccc2CC(=O)N1` (centres unmarked) [Compound C3A], the Ki in test [2] was 0.098 µM; in [3], 5.6 µM; in test [4], 1.1 µM; in test [5] it was 0.25 µM; in test [6], over 10 µM; in test [8], 1.8 µM. Further, the “less potent at competing A26-Fl from CypE K217A compared to wild-type CypE” value in [7] came to 40 fold. For the same compound, the IC50 was determined as 0.03 µM in [9]; 2 µM in test [10] (mutant CypE K218A, read-out: Mutant Cyclophilin Prolyl Isomerase Inhibition IC50 Values, CypE K218A); 0.019 ± 0.003 µM in test [10] (prolyl-isomerase inhibition, read-out: IC50 CypE K218A).
